Read-outs that look alike come from different tables or passages of the source. Each block holds one compound with its values, some of them ahead of it. Numbered stars: 1 amine (or outer) side, 2 acyl side, 3 side chain; on linkers, the order of the positions; unused ones are H or OH. Bridge positions count the residues as written; N and C are the ends. Square brackets hold non-standard residues; d marks the D form. Peptide text beside a SMILES is read from it. Phe(4-guanidino) = N=C(N)Nc1ccc(C[C@H](N)C(=O)O)cc1; TBMB = c1c(C[*:1])cc(C[*:3])cc1C[*:2]; NMeR = CN[C@@H](CCCNC(=N)N)C(=O)O; Aze = O=C(O)[C@@H]1CCN1
Tests used:
[1] = molecular target: T1, human plasma Kallikrein (Homo sapiens, UniProt P03952); assay: Phage binding assay of individual clones, homogeneous plate-based binding to biotinylated human plasma Kallikrein; details: Table 19; fixed WPAR motif library, selection output clones
T1 construct: purchased Stratech, UK
Protocol: Library transformant colonies were picked at random and grown as individual cultures in 2TY broth containing selective antibiotic. The picked colonies were DNA-sequenced using a QIAgen PyroMark Q96 DNA sequencer to reveal the amino-acid substitution present in each clone. Where isolated, a clone of each unique substitution was assayed for human plasma Kallikrein binding as follows. The phage-containing supernatant was harvested from the culture and phage were cyclised with tris bromomethyl benzene(TBMB) based on the methods of Heinis et al (Nature Chemical Biology vol. 5 pp 502-507 (2009)). The purified phage from this process were assayed for binding to biotinylated human plasma Kallikrein using a homogeneous plate-based binding assay; assay read-out measured on a BMG Labtech Pherastar FS plate reader. The quantitative binding data from triplicate assay samples was averaged (mean) and expressed as signal:background (where background was a sample assayed with no target material). The signal:background was expressed as a % of the parallel parent sample. Error bars denote standard deviation of the mean. Assays shown are representative of at least 2 independent experiments. The assay data was correlated with the peptide sequences. Substitutions marked in grey were not tested (a clone was not isolated from the random library sampling). A sample of a non-binding (arbitrary) bicycle was assayed in parallel to illustrate the assay baseline.
Library transformant colonies, or selection output colonies, were picked and grown as individual cultures in 2TY broth containing selective antibiotic. The picked colonies were DNA-sequenced using a QIAgen PyroMark Q96 DNA sequencer to reveal the amino-acid substitution present in each clone, and were assayed for human plasma Kallikrein binding as follows. The phage-containing supernatant was harvested from the culture and phage were cyclised with tris bromomethyl benzene (TBMB) based on the methods of Heinis et al (Nature Chemical Biology vol. 5 pp 502-507 (2009)). The purified phage from this process were assayed for binding to biotinylated human plasma Kallikrein using a homogeneous plate-based binding assay; assay read-out measured on a BMG Labtech Pherastar FS plate reader. The quantitative binding data from duplicate assay samples was averaged (mean) and expressed as signal:background. Assay data shown is representative of at least 2 independent experiments. The assay data was correlated with the peptide sequences.

[2] = Plasma stability profiling Method #1 (MALDI-TOF, 35% plasma), rat plasma; type: in vitro ADME; details: for Observable in rat plasma, for days: Table 15, comparative stabilities estimated according to method #1
Procedure, shortened: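 Qualitative test: 200 µM peptide incubated at 37 °C in 35% rat or human citrated plasma supplemented with PBS, sampled at 0, 3, 24 h then daily up to 10 days. Parent mass tracked by MALDI-TOF; value is time until parent peptide no longer detectable.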

[3] = Table 1; Method #1; cited from earlier work
[4] = molecular target: T1, human plasma Kallikrein; assay: Functional enzyme inhibition assay with fluorogenic substrate Z-PheArg-AMC, human plasma Kallikrein; type: biochemical
Procedure, shortened: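 Human plasma kallikrein at 26.5 pM was preincubated 15 minutes with test peptide in Tris/NaCl/MgCl2/CaCl2/BSA buffer pH7.4 at 25° C, then Z-PheArg-AMC added to 100 μM final in 4% DMSO.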

[5] = Intravenous pharmacokinetics in Sprague Dawley rats; type: in vivo; details: rat
Protocol: Peptides were applied as intravenous boli in PBS-buffered solution at 1.02 mg/mL (containing 2.9% DMSO) at 5.2 mg/kg to Sprague Dawley rats, and serial blood samples were taken from each animal via temporary indwelling tall vein cannulae at 5, 10, 20, 30, 60, 120, and 240 minutes post dose, and transferred to EDTA tubes for plasma generation. Data was acquired for peptide “all D Ac-06-34-18” from 3 rats, for “Ac-(06-34-18) Phe2 Aze3 Tyr4 HArg5 Ala(ψCH2NH)6” from two rats, and for “Ac-(06-34-18) Phe2 Aze3 Tyr4 HArg5 D-Asp9” from two rats.
Plasma samples were then treated with 3 volumes of a 1:1 mixture of acetonitrile and methanol, precipitated proteins were removed by centrifugation, and the supernatant was analysed by UPLC-MS/MS.
Quantification for peptide content in the samples was by reference to a calibration line prepared in control rat plasma. Pharmacokinetic parameters were determined by non-compartmental analysis using the software package PK Solutions 2.0 from Summit Research Services.

[6] = Table 1; Method #3; cited from earlier work
[7] = Quantitative plasma stability Method #3 (LC-MS, 95% plasma), rat plasma; type: in vitro ADME; details: method #3
Protocol: To obtain plasma stability quantitatively, peptide stock solutions (1 mM in DMSO) were shipped to Biofocus, UK, who performed the analysis. Peptides were diluted to 100 uM with water, and diluted 1:20 in plasma (5 uM final concentration, with the plasma at 95%), sampled as appropriate, precipitated as above, and quantified using a Waters Xevo TQ-MS.

[8] = molecular target: T2, rat plasma Kallikrein (Rattus norvegicus, UniProt P14272); details: Table 1; read-out: Ki (nM) (rat kallikrein); cited from earlier work
T2 construct: polyhistidine tag (N, cleaved yes); proTEV cleavage site (pro-peptide linker) (N, cleaved yes); made in house; host or cells: HEK-293 (suspension-adapted)
T2 sequence (P14272 391-638 limits assumed): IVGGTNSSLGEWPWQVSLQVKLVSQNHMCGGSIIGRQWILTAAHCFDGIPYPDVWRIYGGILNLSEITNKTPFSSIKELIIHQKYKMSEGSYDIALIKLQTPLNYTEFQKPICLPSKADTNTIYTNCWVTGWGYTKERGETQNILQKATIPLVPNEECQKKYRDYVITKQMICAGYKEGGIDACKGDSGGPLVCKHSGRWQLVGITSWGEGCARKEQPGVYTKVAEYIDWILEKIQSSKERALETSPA

T1 sequence (P03952 20-638): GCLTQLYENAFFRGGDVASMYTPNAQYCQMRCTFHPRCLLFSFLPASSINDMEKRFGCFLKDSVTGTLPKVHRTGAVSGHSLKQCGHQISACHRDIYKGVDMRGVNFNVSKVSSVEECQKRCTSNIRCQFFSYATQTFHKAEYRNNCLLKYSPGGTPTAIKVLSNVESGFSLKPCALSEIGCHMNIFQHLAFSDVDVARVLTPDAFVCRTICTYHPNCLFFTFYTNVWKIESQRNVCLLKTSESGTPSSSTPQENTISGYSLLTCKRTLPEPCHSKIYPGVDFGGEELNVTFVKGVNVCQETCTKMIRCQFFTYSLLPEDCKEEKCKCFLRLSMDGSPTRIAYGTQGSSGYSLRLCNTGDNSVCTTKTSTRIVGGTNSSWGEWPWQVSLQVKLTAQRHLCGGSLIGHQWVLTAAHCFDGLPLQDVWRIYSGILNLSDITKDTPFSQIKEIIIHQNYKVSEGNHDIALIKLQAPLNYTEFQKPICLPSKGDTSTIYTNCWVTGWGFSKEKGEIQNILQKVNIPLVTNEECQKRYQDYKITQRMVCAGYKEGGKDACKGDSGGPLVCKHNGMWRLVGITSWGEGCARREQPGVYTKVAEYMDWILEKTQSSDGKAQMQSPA

Compound: CC(=O)N[C@H]1CSCc2cc3cc(c2)CSC[C@H](NC(=O)[C@H](Cc2ccc(NC(=N)N)cc2)NC(=O)[C@H](C)NC(=O)[C@@H]2CCN2C(=O)[C@H](Cc2c[nH]c4ccccc24)NC(=O)[C@H](CO)NC1=O)C(=O)N[C@@H](CC(C)C)C(=O)N[C@@H](Cc1c[nH]cn1)C(=O)N[C@@H](CCC(N)=O)C(=O)N[C@@H](CC(=O)O)C(=O)N[C@@H](CC(C)C)C(=O)N[C@H](C(N)=O)CSC3 [Ac-(06-34-18) Aze3 4GuanPhe5] (Ac-CSW[Aze]A[Phe(4-guanidino)]CLHQDLC-NH2; linker 1-7-13 via TBMB)
Observable in rat plasma, for days [2]: >10 days
Observable in rat plasma, for days [3]: >10 days

Compound: CC(=O)N[C@@H]1CSCc2cc3cc(c2)CSC[C@@H](NC(=O)[C@@H](CCCNC(=N)N)NC(=O)[C@@H](C)NC(=O)[C@H]2CCCN2C(=O)[C@@H](Cc2c[nH]c4ccccc24)NC(=O)[C@@H](CO)NC1=O)C(=O)N[C@H](CC(C)C)C(=O)N[C@H](Cc1c[nH]cn1)C(=O)N[C@H](CCC(N)=O)C(=O)N[C@H](CC(=O)O)C(=O)N[C@H](CC(C)C)C(=O)N[C@@H](C(N)=O)CSC3 [All D 06-34-18, Ac-cswparclhqdlc-NH2(TMB), reference compound]
potency / binding to kallikrein (in words) [4]: lacks any potency
half-life ([5]; Sprague Dawley, in vivo, intravenous bolus 5.2 mg/kg, read-out: elimination half-life): 0.9 h
Clearance based on AUC0-∞ ([5]; intravenous): 0.27 L/h/kg
Volume of distribution based on AUC0-∞ ([5]; intravenous): 0.3 L/kg

Compound: CC(=O)N[C@H]1CSCc2cc3cc(c2)CSC[C@H](NC(=O)[C@H](CCCNC(=N)N)N(C)C(=O)[C@H](C)NC(=O)[C@@H]2CCCN2C(=O)[C@H](Cc2c[nH]c4ccccc24)NC(=O)[C@H](CO)NC1=O)C(=O)N[C@@H](CC(C)C)C(=O)N[C@@H](Cc1c[nH]cn1)C(=O)N[C@@H](CCC(N)=O)C(=O)N[C@@H](CC(=O)O)C(=O)N[C@@H](CC(C)C)C(=O)N[C@H](C(N)=O)CSC3 [Ac-(06-34-18) NMeArg5]
t1/2 (hrs) in rat plasma [6]: >20 h
t1/2 (hrs) in rat plasma ([7]; Table 15): >20 h
half-life at 5 uM ([7]; rat, plasma, read-out: half-life in rat plasma (t1/2) (converted)): > 20 h
observability window / rat plasma stability profile ([2]; method #1): exceeds the assay time
reduction in potency/affinity compared to wildtype [4]: 20 fold
Ki [8]: 120 nM

More lines, main results first:

BINDING ASSAY SIGNAL [1]: 91
Compound: CQWPARCTHTDLC

BINDING ASSAY SIGNAL [1]: 83
Compound: CSWPARCTHTDLC

Observable in rat plasma, for days [2]: >10 days
Compound: CC(=O)N[C@H]1CSCc2cc3cc(c2)CSC[C@H](NC(=O)[C@H](CCCNC(=N)N)N(C)C(=O)[C@H](C)NC(=O)[C@@H]2CCN2C(=O)[C@H](Cc2c[nH]c4ccccc24)NC(=O)[C@H](CO)NC1=O)C(=O)N[C@@H](CC(C)C)C(=O)N[C@@H](Cc1c[nH]cn1)C(=O)N[C@@H](CCC(N)=O)C(=O)N[C@@H](CC(=O)O)C(=O)N[C@@H](CC(C)C)C(=O)N[C@H](C(N)=O)CSC3 [Ac-(06-34-18) Aze3 NMeArg5] (Ac-CSW[Aze]A[NMeR]CLHQDLC-NH2; linker 1-7-13 via TBMB)
Ki [8]: 70.2 nM
Observable in rat plasma, for days [3]: >10 days
